Like-named read-outs stand apart in the source and are kept apart here.
Legend:
[1] = tested on: primary rat oligodendrocyte progenitor cells; assay: Oligodendrocyte Toxicity Assay (LDH), progenitor cells; format: cell-based; conditions: Oligodendrocyte progenitor cell, 1 hour pretreatment, LDH after 24 hours
Protocol: (§1) Primary rat oligodendrocyte progenitor cells were obtained from the cerebra of 2-3 day old postnatal rats (Sprague Dawley). The meninges were removed and tissue was mechanically dissociated. Cells were plated on T75 flasks and fed with DMEM +10% FBS.
(§2) Enriched OLPs were collected by mechanical separation from the astrocytic monolayer and were expanded in serum free media (SFM) supplemented with the mitogens, PDGF-AA (10 ng/mI) and FGF-2 (10 ng/mI).
Cells were plated in 96-well plates, 10,000 per well. Medium was changed to fresh medium and cells were pretreated with compounds for 1 hour. Toxins were added to give the following final concentrations: Sin-110 mM, Camptothecin 1 μM
(§3) After 24 hours, medium was removed and assayed for LDH activity using the Promega cytotox 96 kit (catalog# G1780). Results were calculated as percent protection against toxin-induced toxicity.
(§4) These compounds have been assessed for their efficacy in protection against cell death produced by toxic agents such as SIN-1 (3-morpholino-sydnonimine, producing peroxynitrite) and camptothecin. The target cells assessed in vitro are primary cultures of rodent oligodendrocyte progenitors and their mature counterparts.

ERβ = target: T1, ERβ (Homo sapiens, UniProt Q92731); assay: Fluorescence Polarization Competition Assay, ERβ binding affinity; conditions: Fluormone ligand, read-out: Affinity for ER β
T1 construct: purchased Panvera P2700
Protocol: (§5) A number of compounds were tested for ERα and ERβ binding affinity using Panvera's Fluorescence Polarization Competition Assay Kits (cat. nos. P2698 and P2700). Briefly, ERα or ERβ were thawed on ice from −80° C. An estrogen receptor and fluorescent ligand (Fluormone TM) complex was formed at a 15/1 molar ratio for ERα and at a 10/1 molar ratio for ERβ (2X complex). Serial dilutions of the test compounds were made in assay buffer and the assay was initiated by adding 50 ul of the 2X receptor-ligand complex to 50 ul of compound solution in black 96-well plates. Zero percent competition (theoretical maximum polarization) was measured in wells containing 50 ul of buffer and 50 ul of the 2X receptor-ligand complex. The plates were incubated after gentle shaking in the dark at room temperature. Polarization values (mP) were read no longer than 7 hours after the reaction was started with a FARCyte Fluorescent reader (Amersham) at excitation and emission wavelengths of 485 nm and 535 nm, respectively. Data was analyzed using non-linear regression and IC50 values determined using GraphPad Prism. Estradiol was used as the reference compound.

mature oligodendrocytes = assay: Oligodendrocyte Toxicity Assay (LDH), mature oligodendrocytes; format: cell-based; conditions: Rattus norvegicus; protection against SIN-1-induced toxicity; 1 hour pretreatment, LDH after 24 hours
Protocol: as §1, §2
To generate mature oligodendrocytes, progenitor cells were switched to SFM supplemented with IGF-1 (10ng/ml) 24 hours after plating and cells were grown under these conditions for 7 days prior to experimental assays.
Cells were plated in 96-well plates, 10,000 per well. Medium was changed to fresh medium and cells were pretreated with compounds for 1 hour. […]
as §3, §4

ERα = target: T2, ERα (Homo sapiens, UniProt P03372); assay: Fluorescence Polarization Competition Assay, ERα binding affinity; conditions: Fluormone ligand, read-out: Affinity for ER α
T2 construct: purchased Panvera P2698
T2 sequence (P03372 1-595): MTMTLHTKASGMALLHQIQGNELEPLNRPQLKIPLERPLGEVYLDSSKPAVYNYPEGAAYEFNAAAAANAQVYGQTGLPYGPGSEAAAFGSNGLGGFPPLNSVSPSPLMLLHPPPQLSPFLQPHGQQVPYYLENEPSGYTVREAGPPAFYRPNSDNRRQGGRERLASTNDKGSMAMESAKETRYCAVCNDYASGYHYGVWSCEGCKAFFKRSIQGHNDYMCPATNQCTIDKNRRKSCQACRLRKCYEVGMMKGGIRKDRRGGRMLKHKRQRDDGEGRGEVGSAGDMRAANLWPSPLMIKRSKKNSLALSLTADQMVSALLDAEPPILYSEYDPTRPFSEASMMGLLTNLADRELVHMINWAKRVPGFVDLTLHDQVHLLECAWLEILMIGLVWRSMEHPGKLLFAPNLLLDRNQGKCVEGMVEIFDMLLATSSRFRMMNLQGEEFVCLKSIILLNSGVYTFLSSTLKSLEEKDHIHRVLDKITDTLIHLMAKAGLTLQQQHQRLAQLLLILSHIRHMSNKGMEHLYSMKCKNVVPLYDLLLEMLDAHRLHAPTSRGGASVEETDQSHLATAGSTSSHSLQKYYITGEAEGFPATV
Protocol: as §5

T1 sequence (Q92731 whole entry): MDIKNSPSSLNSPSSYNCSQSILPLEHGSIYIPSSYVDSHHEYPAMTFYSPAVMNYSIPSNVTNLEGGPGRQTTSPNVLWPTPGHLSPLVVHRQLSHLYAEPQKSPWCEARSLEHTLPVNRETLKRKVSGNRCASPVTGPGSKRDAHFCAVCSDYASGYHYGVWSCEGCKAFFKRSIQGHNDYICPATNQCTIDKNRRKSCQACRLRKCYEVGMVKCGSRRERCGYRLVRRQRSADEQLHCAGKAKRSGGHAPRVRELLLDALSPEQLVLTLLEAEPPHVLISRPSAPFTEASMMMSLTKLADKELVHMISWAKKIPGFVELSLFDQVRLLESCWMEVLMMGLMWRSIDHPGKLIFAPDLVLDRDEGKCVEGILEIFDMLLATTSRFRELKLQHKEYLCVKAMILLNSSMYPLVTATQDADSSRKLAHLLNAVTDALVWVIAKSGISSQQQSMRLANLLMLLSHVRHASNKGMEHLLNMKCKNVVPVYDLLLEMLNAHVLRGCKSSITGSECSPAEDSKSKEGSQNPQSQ

## Oc1ccc(-c2ccc3cc(O)ccc3c2Cl)cc1 [5-chloro-6-(4-hydroxyphenyl)-2-naphthalenol]
[1]; protection against SIN-1-induced toxicity, read-out: Progenitor Oligodendrocytes SIN-1 IC50
  IC50: 2170 nM
[1]; protection against camptothecin (1 μM)-induced toxicity, read-out: Progenitor Oligodendrocytes Camptothecin IC50
  IC50: < 3000 nM
ERβ
  IC50: 3 nM
Mature oligodendrocytes
  IC50: > 30 µM
ERα
  IC50: 35.4 nM

Reference: patent US20070249732A1, “USE OF CERTAIN PHENYL NAPTHYL COMPOUNDS FOR PROTECTION OF NEURONS AND OLIGODENDROCYTES IN THE TREATMENT OF MULTIPLE SCLEROSIS (MS)” (AVENTIS PHARMACEUTICALS INC., priority 2005, published 2007)
